Data: patent publication US6534313B1, “Genetically modified plants having modulated brassinosteroid signaling” (The Salk Institute for Biological Studies, priority 1999, dated 2003)

Key:
[1] = tested on: bas1-DphyB-4 and phyB-4 seedlings; assay: Feeding experiment: metabolism of deuterium-labeled and non-labeled brassinolide in aseptically grown seedlings, GC-MS; format: in vivo; details: Arabidopsis seedlings, one day, GC-MS comparison with authentic sample
Excerpt: To test the hypothesis that overexpression of bas1 gene product results in hydroxylation of brassinolide, metabolism of deuterium-labeled and non-labeled brassinolide was examined using aseptically grown seedlings. As possible hydroxylated metabolites of brassinolide, 14-hydroxybrassinolide, 20-hydroxybrassinolide, 25-hydroxybrassinolide, 26-hydroxybrassinolide, and 28-hydroxybrassinolide were chemically synthesized. The possible hydroxylated brassinolide fractions from the feeding experiments were analyzed by gas chromatograph-mass spectrometry (GC-MS) after conversion to methaneboronate-trimethylsilyl derivatives.
In preliminary experiments, bas1-DphyB-4 and phyB-4 seedlings were fed ^2H6-labeled brassinolide (d6-BL) and incubated for one day. […] When BL was fed to the seedlings, 26-OHBL was detected as a metabolite of BL. […] When d6-BL was fed to the seedlings, fragment ions such as m/z 625, 583 and 570 were detected. […]
For brassinosteroid measurements, plants were grown on soil (Neff and Chory, supra) in short day conditions (8 hours of light, […] of dark) for five weeks before rosettes were harvested in liquid nitrogen. […] Brassinosteroids were analyzed according to the methods described by (S. Fujioka et al., Plant Cell 9:1951-1962, 1997). […]
Each fraction was subjected to GC-MS analysis after derivatization. 26-OHBL was detected from retention time of 2-3 min. […]

Arabidopsis seedlings = assay: Brassinolide dose response of seedling hypocotyls and cotyledon petioles; format: in vivo
Excerpt: FIGS. 3A-C are graphs showing the dose response of hypocotyls of seedlings to brassinosteroid as measured after 6 days on varying levels of brassinolide. […] Col-O=closed circles; phyB-4=open diamonds; bas1-DphyB-4=open circles; BAS1′ antisense line=closed diamonds; and det2-1=open triangles. Error bars represent one standard error from the mean. When no error bars are visible, they are smaller than the symbols.
By contrast, a brassinosteroid biosynthesis mutant det2-1 produced petioles that were shorter than the wild type in the light, while the petioles of phyB-4 mutants were longer than the wild type in the light. In both cases, these phenotypes were rescued by exposure to increasing amounts of brassinosteroids.
(CIDtech Research Inc., Mississauga, Ontario, Canada) 2 mM Brassinolide stock was made by dissolving in 95% (v/v) EtOH and stored at −20° C. The 1 μM solution was made by a 1:2000 fold dilution of the 2 mM stock in standard growth media. All other concentrations including the negative control contained the same amount of EtOH. Light conditions for fluence responses in red and blue light and seedling measurements were performed as described in Neff and Chory, supra. An E30LED growth chamber (Percival Scientific, Boone, IA) supplied far-red light. Far-red fluences were measured with a portable spectroradiometer (model LI-1800, Li-Cor, Inc., Lincoln, Nebr.).

| Compound | metabolite detected after feeding to seedlings [1] | hypocotyl hyper-responsivity to brassinolide (Arabidopsis seedlings; BAS1 antisense lines, grown in the dark, 6 days) | hypocotyl response to brassinolide (Arabidopsis seedlings; BAS1 antisense lines, grown in the light, 6 days) | rosette response to brassinolide (Arabidopsis seedlings; plants overexpressing bas1 (bas1-DphyB-4), white light) |
| --- | --- | --- | --- | --- |
| CC(C)[C@H](C)[C@@H](O)[C@H](O)[C@@H](C)[C@H]1CC[C@H]2[C@@H]3COC(=O)[C@H]4C[C@H](O)[C@H](O)C[C@]4(C)[C@H]3CC[C@]12C [BL, brassinolide] | 26-OHBL | not | hyper-responsivity | insensitive |
| 2H6-labeled brassinolide [d6-BL] | d6-26-OHBL | – | – | – |
